# From PMC7010297, “How the initiating ribosome copes with ppGpp to translate mRNAs” (PLoS Biology, 2020)
# “And” between values parts separate entries of the source, which are not always exact repeats. Equal values may be shown once. Read-outs that look alike come from different tables or passages of the source.
# B1: mTufA: TufA mRNA with full-length 5′ UTR, in vitro transcribed, codes for EF-Tu (nucleic acid)
# chain: GGUUCUAUCGCCUUUAAAGAAGGCUUUAAGAAAGCGAAACCAGUUCUGCUUGAGCCGAUCAUGAAGGUUGAAGUAGAAACUCCGGAAGAGAACACCGGUGACGUUAUCGGUGACUUGAGCCGUCGUCGUGGUAUGCUCAAAGGUCAGGAAUCUGAAGUUACUGGCGUUAAGAUCCACGCUGAAGUACCGCUGUCUGAAAUGUUCGGAUACGCAACUCAGCUGCGUUCUCUGACCAAAGGUCGUGCAUCAUACACUAUGGAAUUCCUGAAGUAUGAUGAAGCGCCGAGUAACGUUGCUCAGGCCGUAAUUGAAGCCCGUGGUAAAUAAGCCUAAGGGUUAAUACCAAAGUCCCGUGCUCUCUCCUGAAGGGGAGAGCACUAUAGUAAGGAAUAUAGCCGUGUCUAAAGAAAAAUUUGAACG
# How the values were obtained:
# IF2-bound 30S IC = target: T1, IF2-bound 30S IC (Escherichia coli, UniProt P0A705); test: 30S IC formation by MST, guanosine nucleotide titration; format: binding; conditions: for Kd: Fig 3F, GTP titration;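 for MST Average: lower thermophoresis signal means Bpy-tRNAi dissociation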;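 for MST Replicates (a.u.): lower thermophoresis signal means Bpy-tRNAi dissociation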
# T1 construct: 6xHis (N); made in house
# Description: (§1) To monitor the interaction of initiator tRNA and 30S ribosomal subunits, we used Microscale Thermophoresis (MST) with a fluorescently labelled initiator tRNA (Bpy-tRNAi) (Fig 1B). MST allows to measure fluorescence in a constrained space. Changes on the readout derive from molecular drifts resulting from small thermal equilibrium perturbations. Upon equilibrium perturbations, the patterns of Bpy-tRNAi migration away from the observation space are related to bound and unbound states (Fig 1B). […] On the contrary, a decrease in thermophoresis indicated the dissociation of Bpy-tRNAi. The relation between fluorescence measured at both equilibriums (Ff to Fi, after and prior to the perturbation, respectively) as a function of ligand concentration allowed to determine dissociation constants of the interaction (Fig 1C).
# (§2) Continuous lines indicate nonlinear regression fittings with a quadratic equation. Three measurements were performed; mean and standard deviation are plotted (S1 Data). (B) as (A) to measure the concentration dependence for each tested guanosine nucleotide at constant IF2 (1 μM). […] Continuous lines show best fits using exponential functions. (D) Formation of 70S IC as measured by Bpy-tRNAi accommodation in the P site of the ribosome; 0.1 μM 30S ICs were formed with Bpy-tRNAi and rapidly mixed with 0.3 μM 50S subunits on a stopped-flow apparatus as described in [14]. Colors are as in (C). Continuous lines show best fits using an exponential function for a single reaction step. Each stopped-flow trace results from the mean of 5 to 7 replicates.
# MST was calculated from the respective fluorescence time dependencies (S3 Fig). […] Symbols as in (B). […] Continuous lines indicate nonlinear regression fittings with quadratic (B and E) or same-site competition (G) functions. Three measurements were performed; mean and standard deviations are plotted (S1 Data).
# [1] = target: T2, 30S IC (30S-bound IF2, Bpy-tRNAi) (Escherichia coli, UniProt P0A705); test: 30S IC formation measured by MST at increasing concentrations of IF2 with guanosine nucleotides; format: binding; conditions: Fig 2A
# T2 construct: 6xHis (N); made in house
# Description: as §1, §2
# [2] = target: T3, 70S pre-IC (50S joining to 30S IC) (Escherichia coli, UniProt P0A705); test: 70S pre-IC formation by light scattering, stopped-flow; format: biochemical; set-up: K1, best-fit value / k2, best-fit value: unit not given here; conditions: for A0, best-fit value / K1, best-fit value / k2, best-fit value: fit Y=A0+A1*exp(-K1*x)+k2*x; for kfast (s-1) Avg: light scattering
# T3 construct: 6xHis (N); made in house
# Method: as §2
# (A) Scheme of 70S IC formation. […] Time traces were analyzed by nonlinear regression with exponential terms. […] Formation of 70S IC, as measured by Bpy-tRNAi accommodation in the absence (F) or presence of 200 μM ppGpp (G). Time traces were analyzed by nonlinear regression with one exponential term. […] Continuous lines show best fits using an exponential function for a single reaction step. All time traces are mean values of 5 to 10 replicates. Bar graphs show mean and standard errors (error bars) derived from the nonlinear regression fitting (D,E,H,I) (S1 Data).
# To measure 70S pre-IC formation, a SX-20 stopped-flow instrument (Applied Photophysics, Leatherhead, UK) was set up for LS recording with an excitation wavelength of 430 nm. Scattered light was measured at an angle of 90° without a filter. Pseudo first-order conditions were approximated by using ≥3-fold excess of 50S subunits over 30S ICs; 0.2 μM 30S ICs were rapidly mixed in the instrument with 0.6 μM 50S at 25 °C. Bpy-tRNAi accommodation was measured essentially as described elsewhere. Briefly, 0.2 μM 30S ICs were formed using Bpy-tRNAi and rapidly mixed with 0.6 μM 50S at 25 °C. Fluorescence was excited at 470 nm and measured after a 495-nm longpass filter. Individual traces (6–11 traces) were averaged, and the resulting kinetic curve was approximated by single (F = A0 + A1*exp (-kapp1*t)) or double (F = A0 + A1*exp (-kapp1*t) + A2*exp (-kapp2*t)) exponential fit using Graphpad Prism 6.0 software (GraphPad, San Diego, California).
# [3] = Fig 2B (GDP/ppGpp series), nucleotide 0.25 µM
# [4] = Fig 2B (GDP/ppGpp series), nucleotide 0.50 µM
# [5] = Fig 2B (GDP/ppGpp series), nucleotide 1.00 µM
# [6] = Fig 2B (GDP/ppGpp series), nucleotide 2.00 µM
# [7] = Fig 2B (GDP/ppGpp series), nucleotide 4.00 µM
# [8] = Fig 2B (GDP/ppGpp series), nucleotide 8.00 µM
# [9] = Fig 2B (GDP/ppGpp series), nucleotide 16.00 µM
# [10] = Fig 2B (GDP/ppGpp series), nucleotide 31.00 µM
# [11] = Fig 2B (GDP/ppGpp series), nucleotide 62.00 µM
# [12] = Fig 2B (GDP/ppGpp series), nucleotide 125.00 µM
# T2 sequence (P0A705 whole entry, looked up): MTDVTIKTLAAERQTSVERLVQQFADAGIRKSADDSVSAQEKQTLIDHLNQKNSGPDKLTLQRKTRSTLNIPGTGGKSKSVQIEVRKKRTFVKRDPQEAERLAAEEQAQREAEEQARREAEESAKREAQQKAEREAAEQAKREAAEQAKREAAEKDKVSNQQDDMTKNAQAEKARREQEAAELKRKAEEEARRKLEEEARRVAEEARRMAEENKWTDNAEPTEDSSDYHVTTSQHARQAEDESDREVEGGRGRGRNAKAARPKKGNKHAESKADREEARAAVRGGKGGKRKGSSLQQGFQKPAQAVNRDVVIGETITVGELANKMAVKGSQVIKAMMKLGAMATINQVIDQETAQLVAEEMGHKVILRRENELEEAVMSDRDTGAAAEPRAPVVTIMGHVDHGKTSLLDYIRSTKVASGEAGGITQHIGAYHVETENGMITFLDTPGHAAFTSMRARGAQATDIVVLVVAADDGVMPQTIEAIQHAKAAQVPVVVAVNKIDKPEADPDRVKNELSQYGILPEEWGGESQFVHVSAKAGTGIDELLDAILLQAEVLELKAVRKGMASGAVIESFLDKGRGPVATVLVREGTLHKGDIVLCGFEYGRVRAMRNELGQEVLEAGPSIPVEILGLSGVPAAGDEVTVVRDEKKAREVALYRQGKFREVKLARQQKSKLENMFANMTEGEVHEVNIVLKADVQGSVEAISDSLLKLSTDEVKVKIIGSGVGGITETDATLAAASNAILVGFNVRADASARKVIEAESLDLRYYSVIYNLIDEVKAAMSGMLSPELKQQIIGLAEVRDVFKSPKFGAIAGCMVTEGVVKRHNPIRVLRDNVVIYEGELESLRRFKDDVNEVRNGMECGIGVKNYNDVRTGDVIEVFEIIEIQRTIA
# T3 sequence (P0A705 whole entry, looked up): as above
# T1 sequence (P0A705 whole entry, looked up): as above
molecule,measurement,setting,value
"Nc1nc2c(ncn2[C@@H]2O[C@H](COP(=O)(O)OP(=O)(O)O)[C@@H](O)[C@H]2O)c(=O)[nH]1 [GDP, guanosine diphosphate]",MST Average,"IF2-bound 30S IC; Fig 2B (GDP/ppGpp series), nucleotide 0.13 µM",933.71 a.u.
same,MST Replicates (a.u.),"IF2-bound 30S IC; Fig 2B (GDP/ppGpp series), nucleotide 0.13 µM, constant IF2 (1 μM)",931.66 a.u. and 934.22 a.u. and 933.66 a.u. and 935.28 a.u.
same,MST Average,IF2-bound 30S IC; [3],934.55 a.u.
same,MST Replicates (a.u.),IF2-bound 30S IC; [3],933.08 a.u. and 934.64 a.u. and 934.32 a.u. and 936.15 a.u.
same,MST Average,IF2-bound 30S IC; [4],935.70 a.u.
same,MST Replicates (a.u.),IF2-bound 30S IC; [4],933.41 a.u. and 935.59 a.u. and 935.81 a.u. and 937.99 a.u.
same,MST Average,IF2-bound 30S IC; [5],937.58 a.u.
same,MST Replicates (a.u.),IF2-bound 30S IC; [5],936.31 a.u. and 938.31 a.u. and 936.76 a.u. and 938.95 a.u.
same,MST Average,IF2-bound 30S IC; [6],940.10 a.u.
same,MST Replicates (a.u.),IF2-bound 30S IC; [6],938.98 a.u. and 940.66 a.u. and 939.47 a.u. and 941.28 a.u.
same,MST Average,IF2-bound 30S IC; [7],942.84 a.u.
same,MST Replicates (a.u.),IF2-bound 30S IC; [7],941.71 a.u. and 943.61 a.u. and 942.43 a.u. and 943.60 a.u.
same,MST Average,IF2-bound 30S IC; [8],945.64 a.u.
same,MST Replicates (a.u.),IF2-bound 30S IC; [8],944.41 a.u. and 946.59 a.u. and 945.06 a.u. and 946.52 a.u.
same,MST Average,IF2-bound 30S IC; [9],952.27 a.u.
same,MST Replicates (a.u.),IF2-bound 30S IC; [9],951.48 a.u. and 953.11 a.u. and 951.45 a.u. and 953.06 a.u.
same,MST Average,IF2-bound 30S IC; [10],953.23 a.u.
same,MST Replicates (a.u.),IF2-bound 30S IC; [10],951.79 a.u. and 954.63 a.u. and 951.76 a.u. and 954.74 a.u.
same,MST Average,IF2-bound 30S IC; [11],952.59 a.u.
same,MST Replicates (a.u.),IF2-bound 30S IC; [11],952.17 a.u. and 953.16 a.u. and 951.66 a.u. and 953.37 a.u.
same,MST Average,IF2-bound 30S IC; [12],950.10 a.u.
same,MST Replicates (a.u.),IF2-bound 30S IC; [12],949.56 a.u. and 950.68 a.u. and 949.29 a.u. and 950.89 a.u.
same,promotion of Bpy-tRNAi binding (thermophoresis) in guanosine nucleotide titration,IF2-bound 30S IC; constant IF2 (1 μM),failed to promote Bpy-tRNAi binding at any concentration
same,MST Average,[1]; IF2 0.16 µM,936.66 a.u.
same,MST Replicates (a.u.),"[1]; IF2 0.16 µM, in the presence of the nucleotide",938.79 a.u. and 935.06 a.u. and 936.14 a.u.
same,MST Average,[1]; IF2 0.31 µM,942.67 a.u.
same,MST Replicates (a.u.),[1]; IF2 0.31 µM,943.24 a.u. and 941.18 a.u. and 943.58 a.u.
same,MST Average,[1]; IF2 0.63 µM,949.91 a.u.
same,MST Replicates (a.u.),[1]; IF2 0.63 µM,951.36 a.u. and 947.80 a.u. and 950.56 a.u.
same,MST Average,[1]; IF2 1.25 µM,961.16 a.u.
same,MST Replicates (a.u.),[1]; IF2 1.25 µM,962.03 a.u. and 959.55 a.u. and 961.91 a.u.
same,MST Average,[1]; IF2 2.50 µM,966.51 a.u.
same,MST Replicates (a.u.),[1]; IF2 2.50 µM,967.31 a.u. and 965.43 a.u. and 966.81 a.u.
same,MST Average,[1]; IF2 5.00 µM,968.29 a.u.
same,MST Replicates (a.u.),[1]; IF2 5.00 µM,968.72 a.u. and 967.06 a.u. and 969.08 a.u.
same,efficiency (amplitude) of 70S pre-IC formation,"[2]; 0.2 mM nucleotide, no GTP",reduced efficiencies
same,rapid 70S pre-IC formation in the absence of GTP,"[2]; 0.2 mM nucleotide, noncompetitive (S6 Fig)",some transitions
same,"A0, best-fit value",[2]; mInfA,1.03
same,"K1, best-fit value",[2]; mInfA,1.58
same,"k2, best-fit value",[2]; mInfA,0.0017 and 0.00169
same,"A0, best-fit value",[2]; mMF1,1.04
same,"K1, best-fit value",[2]; mMF1,2.79
same,"k2, best-fit value",[2]; mMF1,0.001
same,LS amplitude (a.u.) Avg,[2]; mRNA mInfA,0.028 a.u.
same,kfast (s-1) Avg,[2]; mRNA mInfA,1.58 s⁻¹
same,LS amplitude (a.u.) Avg,[2]; mRNA mMF1,0.027 a.u.
same,kfast (s-1) Avg,[2]; mRNA mMF1,2.79 s⁻¹
same,LS amplitude (a.u.) Avg,[2]; mRNA mTufA,0.058 a.u.
same,kfast (s-1) Avg,[2]; mRNA mTufA,3.39 s⁻¹
same,"A0, best-fit value",[2]; mTufA,1.07
same,"K1, best-fit value",[2]; mTufA,3.39
same,"k2, best-fit value",[2]; mTufA,0.0016 and 0.00162
B1,MST Average,"IF2-bound 30S IC; GTP 0.49 μM, Fig 6E",1014.52 a.u.
same,MST Replicates,"IF2-bound 30S IC; GTP 0.49 μM, Fig 6E",1011.10 a.u. and 1014.70 a.u. and 1017.78 a.u.
same,MST Average,"IF2-bound 30S IC; GTP 1.95 μM, Fig 6E",1035.39 a.u.
same,MST Replicates,"IF2-bound 30S IC; GTP 1.95 μM, Fig 6E",1032.39 a.u. and 1034.94 a.u. and 1038.85 a.u.
same,MST Average,"IF2-bound 30S IC; GTP 3.91 μM, Fig 6E",1049.68 a.u.
same,MST Replicates,"IF2-bound 30S IC; GTP 3.91 μM, Fig 6E",1044.99 a.u. and 1049.25 a.u. and 1054.80 a.u.
same,MST Average,"IF2-bound 30S IC; GTP 7.81 μM, Fig 6E",1070.36 a.u.
same,MST Replicates,"IF2-bound 30S IC; GTP 7.81 μM, Fig 6E",1070.17 a.u. and 1070.71 a.u. and 1070.18 a.u.
same,Kd,"IF2-bound 30S IC; read-out: Kd (μM) of GTP for the 30S IC programmed with the labelled mRNA, Average",0.28 µM
same,Kd,"IF2-bound 30S IC; read-out: Kd (μM) of GTP for the 30S IC programmed with the labelled mRNA, single replicate",0.3 µM and 0.27 µM
